Test results as given in ChEMBL document CHEMBL3885861, “Open TG-GATES”.

Species: Rattus norvegicus
Experiment: Open TG-GATES - Regimen: Daily Repeat
Type: toxicity, organism-based, Sprague-Dawley
Set-up: regimen Daily Repeat, gender Male, age 6 weeks
Details: in vivo, po, route gavage; for LDH / Na / RALB / TBIL / TC / TG / TP / gamma-GTP / ALP / ALT / AST / BUN / CRE / DBIL / GLC / IP / K: tissue Plasma; for Bas / Eos / Fbg / Lym / MCH / MCHC / MCV / Mono / Neu / PT / RBC / Ret / WBC / Plat: tissue Blood; for KIDNEY_L / KIDNEY_R / KIDNEY_TOTAL: tissue Kidney
[1] = 10 mg/kg, […], dose level Middle, time 14 day
[2] = 10 mg/kg, […], dose level Middle, time 28 day
[3] = 30 mg/kg, 72 h, dose level High, time 3 day
[4] = 30 mg/kg, […], dose level High, time 7 day
[5] = 30 mg/kg, […], dose level High, time 14 day

SMILES: Cc1cnc(NC(=O)C2=C(O)c3ccccc3S(=O)(=O)N2C)s1 [MELOXICAM]
- LDH [1]: 185.4 IU/L
- Na [1]: 142.6 meq/L
- RALB [1]: 3.5 g/dL
- TBIL [1]: 0.2 mg/dL
- TC [1]: 67.2 mg/dL
- TG [1]: 128.6 mg/dL
- TP [1]: 5.9 g/dL
- gamma-GTP [1]: 1 IU/L
- ALP [2]: 643.2 IU/L
- ALT [2]: 33.2 IU/L
- AST [2]: 66 IU/L
- BUN [2]: 17 mg/dL
- CRE [2]: 0.5 mg/dL
- DBIL [2]: 0.096 mg/dL
- GLC [2]: 244 mg/dL
- IP [2]: 7.3 mg/dL
- K [2]: 3.9 meq/L
- LDH [2]: 176.8 IU/L
- Na [2]: 141.8 meq/L
- RALB [2]: 3.2 g/dL
- TBIL [2]: 0.2 mg/dL
- TC [2]: 65.2 mg/dL
- TG [2]: 121.4 mg/dL
- TP [2]: 5.7 g/dL
- gamma-GTP [2]: 0.8 IU/L
- TERMINAL_BW [3]: 230.2 g
- Bas [3]: 0.6%
- Eos [3]: 0.4%
- Fbg [3]: 378.4 mg/dL
- Lym [3]: 66.6%
- MCH [3]: 21.2 pg
- MCHC [3]: 34.1%
- MCV [3]: 61.9 fL
- Mono [3]: 4.4%
- Neu [3]: 25.6%
- PT [3]: 11.6 s
- RBC [3]: 512.4 x10_4/ul
- Ret [3]: 7.1%
- WBC [3]: 150.3 x10_2/uL
- KIDNEY_L [3]: 1.2 g
- KIDNEY_R [3]: 1.2 g
- KIDNEY_TOTAL [3]: 2.5 g
- ALP [3]: 536 IU/L
- ALT [3]: 26 IU/L
- AST [3]: 52.4 IU/L
- BUN [3]: 17 mg/dL
- CRE [3]: 0.4 mg/dL
- DBIL [3]: 0.072 mg/dL
- IP [3]: 8.2 mg/dL
- K [3]: 4.1 meq/L
- LDH [3]: 165.8 IU/L
- Na [3]: 140.8 meq/L
- RALB [3]: 2.4 g/dL
- TBIL [3]: 0.1 mg/dL
- TC [3]: 71.6 mg/dL
- TG [3]: 110.4 mg/dL
- TP [3]: 4.9 g/dL
- gamma-GTP [3]: 1.2 IU/L
- TERMINAL_BW [4]: 231.5 g
- TERMINAL_BW [5]: 312.2 g
- Bas [4]: 0.6%
- Eos [4]: 0.6%
- Fbg [4]: 379.2 mg/dL
- Lym [4]: 55.6%
- MCH [4]: 20.6 pg
- MCHC [4]: 32.5%
- MCV [4]: 63.4 fL
- Mono [4]: 4.8%
- Neu [4]: 36.6%
- PT [4]: 12 s
- Plat [4]: 251.1 x10_4/uL
- RBC [4]: 387 x10_4/ul
- Ret [4]: 17.2%
- WBC [4]: 145.2 x10_2/uL
- Bas [5]: 1%
- Eos [5]: 0%
- Fbg [5]: 283.5 mg/dL
- Lym [5]: 62%
- MCH [5]: 20.8 pg
- MCHC [5]: 33%
- MCV [5]: 63 fL
- Mono [5]: 4%
- Neu [5]: 32%
- PT [5]: 11.5 s
- Plat [5]: 174 x10_4/uL
- RBC [5]: 636.5 x10_4/ul
- Ret [5]: 8.5%
- WBC [5]: 190.7 x10_2/uL
- KIDNEY_L [4]: 1.1 g
- KIDNEY_R [4]: 1.1 g
- KIDNEY_TOTAL [4]: 2.2 g
- KIDNEY_L [5]: 1.5 g
- KIDNEY_R [5]: 1.5 g
- KIDNEY_TOTAL [5]: 3 g
- ALP [4]: 1681.8 IU/L
- ALT [4]: 18 IU/L
- AST [4]: 74 IU/L
- BUN [4]: 53.4 mg/dL
- CRE [4]: 0.5 mg/dL
- DBIL [4]: 0.1 mg/dL
- GLC [4]: 153 mg/dL
- IP [4]: 9.7 mg/dL
- K [4]: 5.8 meq/L
- LDH [4]: 221.2 IU/L
- Na [4]: 136 meq/L
- RALB [4]: 2.1 g/dL
- TBIL [4]: 0.2 mg/dL
- TC [4]: 66 mg/dL
- TG [4]: 111.4 mg/dL
- TP [4]: 5.1 g/dL
- gamma-GTP [4]: 7.4 IU/L
- ALP [5]: 580.5 IU/L
- ALT [5]: 32.5 IU/L
- AST [5]: 67 IU/L
- BUN [5]: 16 mg/dL
- CRE [5]: 0.4 mg/dL
- DBIL [5]: 0.095 mg/dL
- IP [5]: 7.5 mg/dL
- K [5]: 4.2 meq/L
- LDH [5]: 145.5 IU/L
- Na [5]: 142 meq/L
- RALB [5]: 3 g/dL
- TBIL [5]: 0.2 mg/dL
- TC [5]: 70 mg/dL
- TG [5]: 139.5 mg/dL
- TP [5]: 5.5 g/dL
- gamma-GTP [5]: 1 IU/L
